Experimental data taken from patent publication US20240150369A1, “CYCLIN-DEPENDENT KINASE INHIBITING COMPOUNDS FOR THE TREATMENT OF MEDICAL DISORDERS” (G1 Therapeutics, Inc., priority 2020, published 2024).

Key:
Assay type in all cases: biochemical
CDK2/Cyclin A = CDK2/Cyclin A (Homo sapiens (Human), UniProt P24941); test: CDK2/Cyclin A kinase assay (Nanosyn, Caliper microfluidic); settings: 12-point dose-response, singlicate, at Km for ATP; ATP 50 μM; 3 hr
Method: (§1) Selected compounds disclosed herein were tested in kinase assays by Nanosyn (Santa Clara, CA) to determine their inhibitory effect on these CDKs. The assays were performed using microfluidic kinase detection technology (Caliper Assay Platform). The compounds were tested in 12-point dose-response format in singlicate at Km for ATP. Specifics of each assay are as described below:
CDK2/Cyclin A: Enzyme concentration: 0.1 nM; ATP concentration: 50 μM; Incubation time: 3 hr.

CDK2/Cyclin E = CDK2/Cyclin E (Homo sapiens (Human), UniProt P24941); test: CDK2/Cyclin E kinase assay (Nanosyn, Caliper microfluidic); settings: 12-point dose-response, singlicate, at Km for ATP; ATP 100 μM; 3 hr
Method: as §1
CDK2/Cyclin E: Enzyme concentration: 0.15 nM; ATP concentration: 100 μM; Incubation time: 3 hr.

CDK4/Cyclin D1 = CDK4/Cyclin D1 (Homo sapiens (Human), UniProt P11802); test: CDK4/Cyclin D1 kinase assay (Nanosyn, Caliper microfluidic); settings: 12-point dose-response, singlicate, at Km for ATP; ATP 200 μM; 3 hr
Method: as §1
CDK4/Cyclin D1: Enzyme concentration: 1 nM; ATP concentration: 200 μM; Incubation time: 3 hr.

CDK6/Cyclin D3 = CDK6/Cyclin D3 (Homo sapiens (Human), UniProt Q00534); test: CDK6/Cyclin D3 kinase assay (Nanosyn, Caliper microfluidic); settings: 12-point dose-response, singlicate, at Km for ATP; ATP 300 μM; 3 hr
Method: as §1
CDK6/Cyclin D3: Enzyme concentration: 2 nM; ATP concentration: 300 μM; Incubation time: 3 hr.

CDK9/Cyclin T1 = CDK9/Cyclin T1 (Homo sapiens (Human), UniProt P50750); test: CDK9/Cyclin T1 kinase assay (Nanosyn, Caliper microfluidic); settings: 12-point dose-response, singlicate, at Km for ATP; ATP 10 μM; 17 hr
Method: as §1
CDK9/Cyclin T1: Enzyme concentration: 5 nM; ATP concentration: 10 μM; Incubation time: 17 hr.

CDK1/Cyclin B1 = CDK1/Cyclin B1 (Homo sapiens (Human), UniProt P06493); test: CDK1/Cyclin B1 kinase assay (Nanosyn, Caliper microfluidic); settings: 12-point dose-response, singlicate, at Km for ATP; ATP 40 μM; 3 hr
Method: as §1
CDK1/Cyclin B1: Enzyme concentration: 0.08 nM; ATP concentration: 40 μM; Incubation time: 3 hr.

CDK3-CYCLIN-E = CDK3-CYCLIN-E (Homo sapiens (Human), UniProt Q00526); test: CDK3-Cyclin-E kinase assay (Nanosyn, Caliper microfluidic); settings: 12-point dose-response, singlicate, at Km for ATP
Method: as §1, with “ATP.” for “ATP. Specifics of each assay are as described below:”

CDK7 = CDK7 (Homo sapiens (Human), UniProt P50613); test: CDK7 kinase assay (Nanosyn, Caliper microfluidic); settings: 12-point dose-response, singlicate, at Km for ATP
Method: as §1, with “ATP.” for “ATP. Specifics of each assay are as described below:”

Sequence of CDK6/Cyclin D3 (Q00534 whole entry): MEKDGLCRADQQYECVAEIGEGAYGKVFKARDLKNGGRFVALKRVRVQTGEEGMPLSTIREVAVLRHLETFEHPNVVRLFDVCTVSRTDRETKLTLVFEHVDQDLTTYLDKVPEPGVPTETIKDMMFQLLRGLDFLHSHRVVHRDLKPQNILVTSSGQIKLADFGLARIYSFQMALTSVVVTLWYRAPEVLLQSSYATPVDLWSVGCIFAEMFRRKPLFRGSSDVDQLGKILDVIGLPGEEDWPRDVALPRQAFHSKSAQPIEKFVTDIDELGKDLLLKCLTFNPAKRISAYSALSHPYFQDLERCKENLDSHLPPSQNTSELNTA
Sequence of CDK6/Cyclin D3 (P30281 whole entry partner): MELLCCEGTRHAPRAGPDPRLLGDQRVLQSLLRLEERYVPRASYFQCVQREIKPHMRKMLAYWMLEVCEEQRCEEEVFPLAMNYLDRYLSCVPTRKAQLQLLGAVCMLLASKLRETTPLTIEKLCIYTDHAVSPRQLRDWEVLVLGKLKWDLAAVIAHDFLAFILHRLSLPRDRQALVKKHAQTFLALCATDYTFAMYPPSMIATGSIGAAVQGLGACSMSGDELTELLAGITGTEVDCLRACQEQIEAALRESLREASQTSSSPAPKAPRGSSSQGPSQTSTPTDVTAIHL
Sequence of CDK1/Cyclin B1 (P06493 whole entry): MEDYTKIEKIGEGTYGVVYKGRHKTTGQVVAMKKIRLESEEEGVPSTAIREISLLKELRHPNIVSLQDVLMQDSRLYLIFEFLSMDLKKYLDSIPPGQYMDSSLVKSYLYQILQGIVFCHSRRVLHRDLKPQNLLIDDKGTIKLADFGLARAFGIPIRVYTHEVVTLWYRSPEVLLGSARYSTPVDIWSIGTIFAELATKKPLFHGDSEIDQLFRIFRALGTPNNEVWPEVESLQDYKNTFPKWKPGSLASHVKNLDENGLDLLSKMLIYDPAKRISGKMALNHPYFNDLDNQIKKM
Sequence of CDK1/Cyclin B1 (P14635 whole entry partner): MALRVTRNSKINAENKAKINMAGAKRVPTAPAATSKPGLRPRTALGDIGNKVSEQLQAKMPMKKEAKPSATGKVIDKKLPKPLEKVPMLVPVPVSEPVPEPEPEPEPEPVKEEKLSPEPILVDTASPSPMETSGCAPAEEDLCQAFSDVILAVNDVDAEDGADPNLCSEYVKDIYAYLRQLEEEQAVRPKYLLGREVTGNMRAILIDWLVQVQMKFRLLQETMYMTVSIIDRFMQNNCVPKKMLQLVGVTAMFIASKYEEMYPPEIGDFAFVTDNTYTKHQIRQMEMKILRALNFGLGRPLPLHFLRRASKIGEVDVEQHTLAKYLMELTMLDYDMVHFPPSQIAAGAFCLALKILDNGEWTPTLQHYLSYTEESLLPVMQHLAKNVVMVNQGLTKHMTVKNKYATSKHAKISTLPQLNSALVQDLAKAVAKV
Sequence of CDK7 (P50613 whole entry): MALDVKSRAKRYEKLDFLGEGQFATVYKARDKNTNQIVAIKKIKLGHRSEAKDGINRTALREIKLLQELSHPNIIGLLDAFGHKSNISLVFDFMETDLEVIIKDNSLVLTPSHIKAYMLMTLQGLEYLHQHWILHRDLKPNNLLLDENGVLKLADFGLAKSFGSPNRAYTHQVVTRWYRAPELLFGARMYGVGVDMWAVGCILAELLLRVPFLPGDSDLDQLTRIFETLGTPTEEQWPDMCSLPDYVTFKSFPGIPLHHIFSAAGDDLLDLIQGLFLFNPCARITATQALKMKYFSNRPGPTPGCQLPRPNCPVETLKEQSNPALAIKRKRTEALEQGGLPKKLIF
Sequence of CDK7 (P51946 whole entry partner): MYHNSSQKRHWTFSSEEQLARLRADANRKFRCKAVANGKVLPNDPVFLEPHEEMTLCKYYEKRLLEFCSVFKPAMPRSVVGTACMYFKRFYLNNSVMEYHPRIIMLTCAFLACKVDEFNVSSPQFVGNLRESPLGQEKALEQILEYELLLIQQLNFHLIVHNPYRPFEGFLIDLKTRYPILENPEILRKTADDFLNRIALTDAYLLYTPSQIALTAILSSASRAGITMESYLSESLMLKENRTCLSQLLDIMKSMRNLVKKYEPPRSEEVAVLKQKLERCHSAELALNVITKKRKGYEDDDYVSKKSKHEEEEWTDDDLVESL
Sequence of CDK7 (P51948 whole entry partner): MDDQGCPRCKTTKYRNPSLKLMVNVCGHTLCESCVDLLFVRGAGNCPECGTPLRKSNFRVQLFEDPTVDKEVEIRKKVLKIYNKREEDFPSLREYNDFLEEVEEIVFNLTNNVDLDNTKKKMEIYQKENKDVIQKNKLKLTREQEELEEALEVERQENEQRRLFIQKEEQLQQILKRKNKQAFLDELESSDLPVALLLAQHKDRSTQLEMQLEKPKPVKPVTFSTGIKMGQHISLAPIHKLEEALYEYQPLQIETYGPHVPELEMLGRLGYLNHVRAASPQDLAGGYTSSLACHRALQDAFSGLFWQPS
Sequence of CDK4/Cyclin D1 (P11802 whole entry): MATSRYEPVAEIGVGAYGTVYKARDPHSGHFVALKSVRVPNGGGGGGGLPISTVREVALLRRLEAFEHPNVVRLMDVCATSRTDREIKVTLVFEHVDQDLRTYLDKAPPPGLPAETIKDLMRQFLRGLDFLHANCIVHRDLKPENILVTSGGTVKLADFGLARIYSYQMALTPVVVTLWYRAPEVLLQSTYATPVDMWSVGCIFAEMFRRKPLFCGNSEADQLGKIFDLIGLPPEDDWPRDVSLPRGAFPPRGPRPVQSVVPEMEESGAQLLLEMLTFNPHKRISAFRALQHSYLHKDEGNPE
Sequence of CDK4/Cyclin D1 (P24385 whole entry partner): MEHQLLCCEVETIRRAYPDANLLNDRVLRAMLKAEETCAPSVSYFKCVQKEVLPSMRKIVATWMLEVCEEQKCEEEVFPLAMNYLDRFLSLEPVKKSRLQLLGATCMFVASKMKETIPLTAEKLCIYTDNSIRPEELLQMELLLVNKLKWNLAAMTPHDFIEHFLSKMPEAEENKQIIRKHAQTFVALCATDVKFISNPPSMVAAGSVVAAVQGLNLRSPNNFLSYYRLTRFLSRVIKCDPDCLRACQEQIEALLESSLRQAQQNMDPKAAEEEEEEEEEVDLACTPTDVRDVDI
Sequence of CDK9/Cyclin T1 (P50750 whole entry): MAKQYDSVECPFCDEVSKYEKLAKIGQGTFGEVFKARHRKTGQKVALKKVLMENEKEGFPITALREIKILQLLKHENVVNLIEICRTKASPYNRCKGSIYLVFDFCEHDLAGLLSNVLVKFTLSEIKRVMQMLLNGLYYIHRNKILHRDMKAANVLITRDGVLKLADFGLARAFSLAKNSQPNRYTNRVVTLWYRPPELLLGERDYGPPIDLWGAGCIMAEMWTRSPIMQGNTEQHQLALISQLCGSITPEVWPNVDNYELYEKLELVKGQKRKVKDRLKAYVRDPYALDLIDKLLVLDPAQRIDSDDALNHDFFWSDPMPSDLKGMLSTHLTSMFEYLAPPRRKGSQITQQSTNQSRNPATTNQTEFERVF
Sequence of CDK9/Cyclin T1 (O60563 whole entry partner): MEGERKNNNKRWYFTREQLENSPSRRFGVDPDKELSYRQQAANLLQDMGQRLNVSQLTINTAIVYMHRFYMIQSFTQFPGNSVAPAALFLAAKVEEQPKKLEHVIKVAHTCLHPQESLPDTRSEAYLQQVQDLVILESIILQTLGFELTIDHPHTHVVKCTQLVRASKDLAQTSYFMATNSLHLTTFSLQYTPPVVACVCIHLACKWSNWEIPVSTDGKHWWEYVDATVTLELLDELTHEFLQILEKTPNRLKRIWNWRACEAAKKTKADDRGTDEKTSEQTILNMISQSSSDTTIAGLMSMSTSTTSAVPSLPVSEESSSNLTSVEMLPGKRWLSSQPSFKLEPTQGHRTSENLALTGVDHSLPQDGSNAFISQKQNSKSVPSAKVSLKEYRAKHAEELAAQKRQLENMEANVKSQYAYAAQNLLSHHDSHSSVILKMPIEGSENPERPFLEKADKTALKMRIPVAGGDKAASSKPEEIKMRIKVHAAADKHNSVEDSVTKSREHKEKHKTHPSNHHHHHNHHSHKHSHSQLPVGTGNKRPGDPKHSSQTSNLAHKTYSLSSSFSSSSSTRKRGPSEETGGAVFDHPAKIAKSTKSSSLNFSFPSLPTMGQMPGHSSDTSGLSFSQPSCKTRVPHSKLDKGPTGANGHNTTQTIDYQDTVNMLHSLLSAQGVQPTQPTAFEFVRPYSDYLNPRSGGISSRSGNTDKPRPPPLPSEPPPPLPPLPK

Compound | IC50 (CDK2/Cyclin A) | IC50 (CDK2/Cyclin E) | IC50 (CDK4/Cyclin D1) | IC50 (CDK6/Cyclin D3) | IC50 (CDK9/Cyclin T1) | IC50 (CDK1/Cyclin B1) | IC50 (CDK3-CYCLIN-E) | IC50 (CDK7)
NS(=O)(=O)c1ccc(Nc2ncc3cc4n(c3n2)C2(C=NN4)CCCCC2)cc1 [Compound 4, 4-((1′H-spiro[cyclohexane-1,4′-pyrimido[5′,4′:4,5]pyrrolo[2,1-c][1,2,4]triazin]-7′-yl)amino)benzenesulfonamide] | 1 nM | 1 nM | 53 nM | 170 nM | 11 nM | 89 nM | 5 nM | 230 nM
CN1CCN(C(=O)c2ccc(Nc3ncc4cc5n(c4n3)C3(CCCCC3)C(=O)NC5O)cc2)CC1 (centres unmarked) [Compound 53, 6′-hydroxy-2′-((4-(4-methylpiperazine-1-carbonyl)phenyl)amino)-6′,7′-dihydro-8′H-spiro[cyclohexane-1,9′-pyrazino[1′,2′:1,5]pyrrolo[2,3-d]pyrimidin]-8′-one] | 2 nM | 4 nM | 2 nM | 5 nM | 10 nM | 27 nM | 10 nM | 615 nM
CN1CCN(S(=O)(=O)c2ccc(Nc3ncc4cc5n(c4n3)C3(CCCCC3)C(=O)NN5)cc2)CC1 [Compound 49, 7′-((4-((4-methylpiperazin-1-yl)sulfonyl)phenyl)amino)-1′,2′-dihydro-3′H-spiro[cyclohexane-1,4′-pyrimido[5′,4′:4,5]pyrrolo[2,1-c][1,2,4]triazin]-3′-one] | 45 nM | 10 nM | 253 nM | 480 nM | 199 nM | 478 nM | 115 nM | 242 nM
O=C(c1ccc(Nc2ncc3cc4n(c3n2)C2(CCCCC2)C(=O)NN4)cc1)N1CCOCC1 [Compound 74, 7′-((4-(morpholine-4-carbonyl)phenyl)amino)-1′,2′-dihydro-3′H-spiro[cyclohexane-1,4′-pyrimido[5′,4′:4,5]pyrrolo[2,1-c][1,2,4]triazin]-3′-one] | 29 nM | 8 nM | 60 nM | 137 nM | 653 nM | 258 nM | 106 nM | > 1000 nM

Continued by falling IC50 (CDK2/Cyclin A), values first:

IC50 (CDK2/Cyclin A) | IC50 (CDK2/Cyclin E) | IC50 (CDK4/Cyclin D1) | IC50 (CDK6/Cyclin D3) | IC50 (CDK9/Cyclin T1) | IC50 (CDK1/Cyclin B1) | IC50 (CDK3-CYCLIN-E) | IC50 (CDK7) | Compound
18 nM | 4.5 nM | 27 nM | 75 nM | 318 nM | 242 nM | 75 nM | > 1000 nM | CN1CCN(C(=O)c2ccc(Nc3ncc4cc5n(c4n3)C3(CCCCC3)C(=O)NN5)cc2)CC1 [Compound 52, 7′-((4-(4-methylpiperazine-1-carbonyl)phenyl)amino)-1′,2′-dihydro-3′H-spiro[cyclohexane-1,4′-pyrimido[5′,4′:4,5]pyrrolo[2,1-c][1,2,4]triazin]-3′-one]
2 nM | 3 nM | 41 nM | 231 nM | 26 nM | 11 nM | 23 nM | 875 nM | CN1N=CC2(CCCCC2)n2c1cc1cnc(Nc3ccc(S(N)(=O)=O)cc3)nc12 [Compound 5, 4-((1′-methyl-1′H-spiro[cyclohexane-1,4′-pyrimido[5′,4′:4,5]pyrrolo[2,1-c][1,2,4]triazin]-7′-yl)amino)benzenesulfonamide]
2 nM | 4 nM | 113 nM | 51 nM | 2 nM | 78 nM | 28 nM | 118 nM | CN1CCN(S(=O)(=O)c2ccc(Nc3ncc4cc5n(c4n3)C3(CCCCC3)C(=O)NC5O)cc2)CC1 (centres unmarked) [Compound 50, 6′-hydroxy-2′-((4-((4-methylpiperazin-1-yl)sulfonyl)phenyl)amino)-6′,7′-dihydro-8′H-spiro[cyclohexane-1,9′-pyrazino[1′,2′:1,5]pyrrolo[2,3-d]pyrimidin]-8′-one]
